Assay [1] concerns Escherichia coli. Kind of assay: Binding affinity to Escherichia coli MRE600 23S rRNA assessed as protection of U2585 at 50 uM by footprinting assay relative to control in presence of CMCT.
In assay [2] the test system is Staphylococcus aureus. Put plainly: Antimicrobial activity against […] Staphylococcus aureus RN4220 after 20 hrs by two-fold broth dilution assay. The note with it: RN4220, 20 h. It counts as functional.
Assay [3] relates to Escherichia coli. Put plainly: Binding affinity to Escherichia coli MRE600 23S rRNA assessed as protection of U2506 at 50 uM by footprinting assay relative to control in presence of CMCT.
Assay [4] has as its system Escherichia coli. Put plainly: Antimicrobial activity against […] Escherichia coli AS19 after 20 hrs by two-fold broth dilution assay. It counts as functional. The note with it: AS19, 20 h.
The subject of assay [5] is Staphylococcus aureus. Kind of assay: Antimicrobial activity against methicillin-resistant Staphylococcus aureus USA300 after 20 hrs by two-fold broth dilution assay. It counts as functional. The note with it: USA300, 20 h.
Assay [6] deals with Escherichia coli. Kind of assay: Binding affinity to Escherichia coli MRE600 23S rRNA assessed as protection of U2506 at 5 uM by footprinting assay relative to control in presence of CMCT.
Assay [7] has as its system Escherichia coli. Kind of assay: Binding affinity to Escherichia coli MRE600 23S rRNA assessed as protection of U2585 at 5 uM by footprinting assay relative to control in presence of CMCT.
Assay [8] deals with Escherichia coli. Kind of assay: Binding affinity to Escherichia coli MRE600 23S rRNA assessed as protection of A2059 at 25 uM by footprinting assay relative to control in presence of DMS.
For assay [9], the system named is Escherichia coli. Kind of assay: Binding affinity to Escherichia coli MRE600 23S rRNA assessed as protection of A2062 at 25 uM by footprinting assay relative to control in presence of DMS.

In brackets after ≈: the same amount, converted by molar mass. Activity calls are given as the source filed them. The rule behind the calls is not given here.

Usually MIC stands for the lowest concentration found to suppress growth.

With `C=C[C@]1(C)C[C@@H](OC(=O)CSC(C)(C)CNC(=O)[C@H](N)C(C)C)[C@]2(C)[C@H](C)CC[C@]3(CCC(=O)[C@H]32)[C@@H](C)[C@@H]1O` [VALNEMULIN], the Activity turned out to be 12% in assay [1], 2% in [3], 2% in [6] and 10% in assay [7]. The MIC came to 0.03 µg/mL (≈ 0.0531 µM) in assay [2], 0.03 µg/mL (≈ 0.0531 µM) in [4] and 0.06 µg/mL (≈ 0.106 µM) in assay [5].

As to `C=C[C@]1(C)C[C@@H](OC(=O)Cn2cc(/C=C/Cn3cnc4c(N)ncnc43)nn2)[C@]2(C)[C@H](C)CC[C@]3(CCC(=O)[C@H]32)[C@@H](C)[C@@H]1O`, the MIC in assay [2] was determined as 1 µg/mL (≈ 1.66 µM); in assay [4], 2 µg/mL (≈ 3.32 µM); in [5] it was 1 µg/mL (≈ 1.66 µM).

In the case of `C=C[C@]1(C)C[C@@H](OC(=O)Cn2cc(CN(CC)CC)nn2)[C@]2(C)[C@H](C)CC[C@]3(CCC(=O)[C@H]32)[C@@H](C)[C@@H]1O`, the Activity in assay [1] is 28%; in assay [3], 8%; in assay [6] it was 27%; in assay [7], 51%. The MIC was over 4 µg/mL in assay [2], at least 4 µg/mL in assay [4] and over 4 µg/mL in assay [5].

For `C=C[C@]1(C)C[C@@H](OC(=O)CSCCN(CC)CC)[C@]2(C)[C@H](C)CC[C@]3(CCC(=O)[C@H]32)[C@@H](C)[C@@H]1O` [TIAMULIN], the Activity in [1] amounted to 40%; in assay [3] it was 3%; in [6], 5%; in [7], 41%. Also, the values for the MIC in assay [2], in assay [4] and in assay [5] were 0.5 µg/mL (≈ 1.01 µM), 0.25 µg/mL (≈ 0.506 µM) and 1 µg/mL (≈ 2.03 µM), respectively.

Take `C=C[C@]1(C)C[C@@H](OC(=O)Cn2nncc2CCCn2cnc3c(N)ncnc32)[C@]2(C)[C@H](C)CC[C@]3(CCC(=O)[C@H]32)[C@@H](C)[C@@H]1O`: the MIC is 4 µg/mL (≈ 6.61 µM) in [2], 4 µg/mL (≈ 6.61 µM) in assay [4] and over 4 µg/mL in [5]. In addition, in [8], the outcome was inactive.

Consider `C=C[C@]1(C)C[C@@H](OC(=O)Cn2cc(COCCn3cnc4c(N)ncnc43)nn2)[C@]2(C)[C@H](C)CC[C@]3(CCC(=O)[C@H]32)[C@@H](C)[C@@H]1O`, for which the Activity worked out at 14% in [1], 4% in assay [3], 9% in assay [6] and 27% in assay [7]. Further, the MIC in assay [2], in [4] and in assay [5] was over 4 µg/mL throughout.

On to `C=C[C@]1(C)C[C@@H](OC(=O)Cn2cc(-c3cccc(-n4cnc5c(N)ncnc54)c3)nn2)[C@]2(C)[C@H](C)CC[C@]3(CCC(=O)[C@H]32)[C@@H](C)[C@@H]1O`, for which the MIC in assay [2] is 0.06 µg/mL (≈ 0.0939 µM); in assay [4], 0.5 µg/mL (≈ 0.783 µM); in assay [5], 0.06 µg/mL (≈ 0.0939 µM).

As to `C=C[C@]1(C)C[C@@H](OC(=O)Cn2cc(-c3ccc(-n4cnc5c(N)ncnc54)cc3)nn2)[C@]2(C)[C@H](C)CC[C@]3(CCC(=O)[C@H]32)[C@@H](C)[C@@H]1O`, the results for the MIC in assay [2], in assay [4] and in assay [5] were 0.5 µg/mL (≈ 0.783 µM), 4 µg/mL (≈ 6.26 µM) and 0.5 µg/mL (≈ 0.783 µM), respectively. The result in [8] and in assay [9] was inactive.

On to `C=C[C@]1(C)C[C@@H](OC(=O)Cn2cc(CCCn3cnc4c(N)ncnc43)nn2)[C@]2(C)[C@H](C)CC[C@]3(CCC(=O)[C@H]32)[C@@H](C)[C@@H]1O`, for which the MIC in assay [2], in assay [4] and in assay [5] was 2 µg/mL (≈ 3.31 µM) each time.

Take `C=C[C@]1(C)C[C@@H](OC(=O)CO)[C@]2(C)[C@H](C)CC[C@]3(CCC(=O)[C@@H]32)[C@@H](C)[C@@H]1O`: the Activity is 59% in assay [1], 5% in assay [3], 15% in [6] and 73% in assay [7].

Source of the values: ChEMBL document CHEMBL3112534, “A click chemistry approach to pleuromutilin derivatives. Part 3: extended footprinting analysis and excellent MRSA inhibition for a derivative with an adenine phenyl side chain” (2014).
